Patent US20230047208A1, “RNA Splicing Modulation” (The General Hospital Corporation, priority 2020, published 2023)

System: wildtype (WT) human fibroblast cell lines
Assay: Transcriptome-wide splicing by RNA sequencing (RNASeq), exon triplet PSI change
Format: cell-based
Design: key to Effect: Exclusion; Inclusion; Unchanged
Description: FIG. 2A provides a representation of an exon triplet. Exon U is upstream of Exon X, which is upstream of Exon D. R1, R2 and R3 represent RNA sequencing (RNASeq) reads spanning the regions between two adjacent exons. UI1, I1X, XI2 and I2D are four regions flanking the four splice sites of the exon-triplet. Each flanking region consists of 25 exonic base pairs and 75 intronic base pairs.
FIG. 2B provides a volcano plot showing the ψ (PSI: Percent Spliced-In) changes in splicing after treatment with Compound (I). Each dot represents one of the 161,097 expressed exon triplets in human fibroblasts. The x axis represents the ψ changes after treatment and the y axis represents the False Discovery Rate (FDR) (log 10 transformed). […] The horizontal dashed line indicates an FDR of 0.1. The dots on the right side of the right vertical dashed line and above the horizontal dashed line represent the exon-triplets with an increase for Exon X inclusion (Δψ≥0.1 and FDR<0.1) while the dots on left side of the left vertical dashed line and above the horizontal dashed line represent an increase for Exon X exclusion (Δψ≤−0.1 and FDR<0.1). Black dots in-between the two vertical dashed lines represent exon-triplets unchanged from the treatment.
In some aspects, analysis is performed on data derived from the assay to measure the magnitude of splicing to determine the amount of exons spliced into an mRNA transcript that is produced in the presence of Compound (I) relative to the amount in the absence of Compound (I) or presence of a negative control. In a preferred aspect, the method utilized is calculation of change in Percent Spliced In (ΔPSI). […] The ΔPSI value is derived from the formula: […]
The values for “a” and “b” represent the number of reads supporting the probability for potential inclusion or exclusion of an exon in an RNA transcript. The “a” value is derived from the number of reads within an exon triplet covering, in 5′ to 3′ order: the last few bases (>1 nucleotide) of an upstream exon operably linked to the first few bases (>1 nucleotide) of a middle exon. The “b” value is derived from the number of reads within an exon triplet covering, in 5′ to 3′ order: the last few bases (>1 nucleotide) of the middle exon operably linked to the first few bases (>1 nucleotide) of a downstream exon. The number of reads will indicate whether the splice junction of a middle exon has been identified as potentially having a CNN Motif(s) by the CNN Model described herein, wherein the inclusion or exclusion of the middle exon may be modulated in the presence of Compound (I) to produce one or more mature RNA isoforms from the gene transcript. The value for “c” represents the number of reads supporting the exclusion of the middle exon.
The effect on splicing modulation and corresponding splice differences toward exon inclusion or exclusion was determined by counting the RNASeq reads covering two splice junctions of exon triplets (three consecutive exons: Exon U, Exon X, Exon D) and the corresponding intervening introns, then comparing the change in Percent Spliced In (ΔPSI or Δψ) of the middle exon (Exon X) after treatment (as shown in FIG. 2A)^52,53. 934 exon triplets were identified showing differential middle exon inclusion or exclusion in response to Compound (I) treatment. Of these, 254 were exon inclusion events (Δψ≥0.1 and FDR<0.1) and 680 were exon exclusion events (Δψ≤−0.1 and FDR<0.1) (as shown in FIG. 2B). […] The splicing results were evaluated by RT-PCR in independent replicate experiments, confirming all the calculated Δψ values. […]

`Clc1nc(NCc2ccncc2)c2cc[nH]c2n1` [Compound (I), 2-chloro-N-(pyridin-4-ylmethyl)-7H-pyrrolo[2,3-d]pyrimidin-4-amine] was tested, and the “splicing changes, share of all expressed triplets” value (934 out of 161,097 expressed triplets) was 0.58%, the Effect (Exc/Inc/Unc of the middle exon of the exon triplet, six WT human fibroblast cell lines treated for seven days vs DMSO, gene LENG8) was “Exc” and the Effect (Exc/Inc/Unc of the middle exon of the exon triplet, six WT human fibroblast cell lines treated for seven days vs DMSO, gene LGALS8) was “Inc”. For the same compound, the Effect (Exc/Inc/Unc of the middle exon of the exon triplet, six WT human fibroblast cell lines treated for seven days vs DMSO, gene LRP12) was “Unc”, the Effect (MYO1B Exon 192265475-192265561) was “Inc” and the T-PSI (MYO1B Exon 192265475-192265561) was 0.296. For the same compound, the ΔPSI (MYO1B Exon 192265475-192265561) was 0.128, the Effect (MYO1B Exon 192267358-192267444) was “Inc” and the T-PSI (MYO1B Exon 192267358-192267444) was 0.483. For the same compound, the ΔPSI (MYO1B Exon 192267358-192267444) was 0.190, the Effect (MYO5A Exon 52630007-52630081) was “Exc” and the T-PSI (MYO5A Exon 52630007-52630081) was 0.063. For the same compound, the ΔPSI (MYO5A Exon 52630007-52630081) was −0.118, the Effect (MYO5A Exon 52635314-52635394) was “Unc” and the T-PSI (MYO5A Exon 52635314-52635394) was 0.617. For the same compound, the ΔPSI (MYO5A Exon 52635314-52635394) was 0.007, the Effect (MYO5A Exon 52641015-52641023) was “Inc” and the T-PSI (MYO5A Exon 52641015-52641023) was 0.953. For the same compound, the ΔPSI (MYO5A Exon 52641015-52641023) was 0.130, the Effect (MYO18A Exon 27464034-27464102) was “Unc” and the T-PSI (MYO18A Exon 27464034-27464102) was 0.330. The ΔPSI (MYO18A Exon 27464034-27464102) was 0.005, the Effect (MYO19 Exon 34870956-34871025) was “Exc” and the T-PSI (MYO19 Exon 34870956-34871025) was 0.870. The ΔPSI (MYO19 Exon 34870956-34871025) was −0.109, the Effect (N6AMT2 Exon 21311862-21311944) was “Unc” and the T-PSI (N6AMT2 Exon 21311862-21311944) was 0.755. The ΔPSI (N6AMT2 Exon 21311862-21311944) was 0.010, the Effect (NABP1 Exon 192547218-192547321) was “Inc” and the T-PSI (NABP1 Exon 192547218-192547321) was 0.729. The ΔPSI (NABP1 Exon 192547218-192547321) was 0.198, the Effect (NADK2 Exon 36208727-36208792) was “Exc” and the T-PSI (NADK2 Exon 36208727-36208792) was 0.005. For the same compound, the ΔPSI (NADK2 Exon 36208727-36208792) was −0.102, the Effect (NAE1 Exon 66860571-66860683) was “Exc” and the T-PSI (NAE1 Exon 66860571-66860683) was 0.596. The ΔPSI (NAE1 Exon 66860571-66860683) was −0.315, the Effect (NAE1 Exon 66860580-66860683) was “Exc” and the T-PSI (NAE1 Exon 66860580-66860683) was 0.859. For the same compound, the ΔPSI (NAE1 Exon 66860580-66860683) was −0.115, the Effect (NBN Exon 90994181-90994230) was “Exc” and the T-PSI (NBN Exon 90994181-90994230) was 0.017. For the same compound, the ΔPSI (NBN Exon 90994181-90994230) was −0.156, the Effect (NCK2 Exon 106497784-106498505) was “Unc” and the T-PSI (NCK2 Exon 106497784-106498505) was 0.586. For the same compound, the ΔPSI (NCK2 Exon 106497784-106498505) was −0.008, the Effect (NCOR2 Exon 124811955-124812179) was “Unc” and the T-PSI (NCOR2 Exon 124811955-124812179) was 0.657. The ΔPSI (NCOR2 Exon 124811955-124812179) was 0.000, the Effect (NCOR2 Exon 124812093-124812179) was “Unc” and the T-PSI (NCOR2 Exon 124812093-124812179) was 0.681. For the same compound, the ΔPSI (NCOR2 Exon 124812093-124812179) was −0.001, the Effect (NEDD1 Exon 97301382-97301634) was “Unc” and the T-PSI (NEDD1 Exon 97301382-97301634) was 0.826. The ΔPSI (NEDD1 Exon 97301382-97301634) was −0.003, the Effect (NEDD1 Exon 97301480-97301634) was “Unc” and the T-PSI (NEDD1 Exon 97301480-97301634) was 0.878. The ΔPSI (NEDD1 Exon 97301480-97301634) was 0.008, the Effect (NEK1 Exon 170508710-170508764) was “Exc” and the T-PSI (NEK1 Exon 170508710-170508764) was 0.830. For the same compound, the ΔPSI (NEK1 Exon 170508710-170508764) was −0.152, the Effect (NEO1 Exon 73567033-73567065) was “Inc” and the T-PSI (NEO1 Exon 73567033-73567065) was 0.149. The ΔPSI (NEO1 Exon 73567033-73567065) was 0.120, the Effect (NEXN Exon 78390873-78390914) was “Exc” and the T-PSI (NEXN Exon 78390873-78390914) was 0.654. For the same compound, the ΔPSI (NEXN Exon 78390873-78390914) was −0.138, the Effect (NF2 Exon 30079009-30079053) was “Inc” and the T-PSI (NF2 Exon 30079009-30079053) was 0.900. For the same compound, the ΔPSI (NF2 Exon 30079009-30079053) was 0.167, the Effect (NF2 Exon 30079009-30079068) was “Inc” and the T-PSI (NF2 Exon 30079009-30079068) was 0.807. The ΔPSI (NF2 Exon 30079009-30079068) was 0.244, the Effect (NFE2L1 Exon 46134394-46134483) was “Exc” and the T-PSI (NFE2L1 Exon 46134394-46134483) was 0.327. For the same compound, the ΔPSI (NFE2L1 Exon 46134394-46134483) was −0.156.
